Assays:
PTPN2 [1] = target: T1, PTPN2 (Homo sapiens, UniProt P17706); assay: HiBiT PTPN2 degradation in 293T.109 (HiBiT-PTPN2) cells, 24 hours; type: cell-based; conditions: 293T.109 cells
T1 construct: expressed in transfected cells; host or cells: 293T.109 (HiBiT-PTPN2), derived from 293T WT (ATCC)
T1 sequence (P17706 1-415): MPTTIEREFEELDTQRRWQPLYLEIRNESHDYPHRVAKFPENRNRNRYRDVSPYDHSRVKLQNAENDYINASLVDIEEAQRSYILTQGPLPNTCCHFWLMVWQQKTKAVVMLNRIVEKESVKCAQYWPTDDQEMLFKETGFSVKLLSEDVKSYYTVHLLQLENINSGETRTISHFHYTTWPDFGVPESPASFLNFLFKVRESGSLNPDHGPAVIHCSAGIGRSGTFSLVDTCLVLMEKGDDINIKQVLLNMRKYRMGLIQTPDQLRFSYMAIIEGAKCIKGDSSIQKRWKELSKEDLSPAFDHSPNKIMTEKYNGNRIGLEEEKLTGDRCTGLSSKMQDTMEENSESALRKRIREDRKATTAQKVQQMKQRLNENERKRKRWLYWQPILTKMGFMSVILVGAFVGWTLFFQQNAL
Method in brief: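 293T cells stably expressing N-terminal HiBiT-tagged PTPN2 were treated for 24 h at 37 °C with compound in an 11-point half-log series from 10 μM top concentration, in duplicate. Remaining HiBiT-PTPN2 was measured by lytic luminescence, with untreated cells as the negative control and wells without lytic reagent as the positive control.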

PTPN2 [2] = target: T2, PTPN2 (Mus musculus, UniProt Q06180); assay: HiBiT PTPN2 degradation in B16F10.4 cells, 24 hours; type: cell-based
T2 construct: HiBiT; host or cells: B16F10.4
T2 sequence (Q06180 1-406): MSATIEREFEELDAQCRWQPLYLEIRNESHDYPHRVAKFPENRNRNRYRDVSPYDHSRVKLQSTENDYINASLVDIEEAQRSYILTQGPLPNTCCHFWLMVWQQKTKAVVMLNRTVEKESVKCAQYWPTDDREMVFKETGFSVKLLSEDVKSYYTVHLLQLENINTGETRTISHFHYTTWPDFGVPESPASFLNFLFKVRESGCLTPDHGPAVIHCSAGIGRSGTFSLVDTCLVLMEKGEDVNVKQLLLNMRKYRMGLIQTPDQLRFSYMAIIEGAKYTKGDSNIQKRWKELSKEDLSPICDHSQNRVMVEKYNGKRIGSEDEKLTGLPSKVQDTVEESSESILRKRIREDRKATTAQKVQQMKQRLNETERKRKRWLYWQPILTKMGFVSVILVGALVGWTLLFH
Method in brief: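 PTPN2 degradation was measured via luminescence from the Nano-Glo® HiBiT Lytic Assay kit. Compounds were dispensed into 384-well plates at an 11-point half-log titration in duplicate, starting at 10 μM. Cells were added at 5000 per well and held at 37° C. with 5% CO2 for 24 hours. Untreated cells were the negative control and cells without lytic reagent the positive control. Lytic reagents were then added and luminescence read on an EnVision™ Multilabel Reader.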

Row | Structure (SMILES) | DC50 (PTPN2 [1]) [nM] | DC50 (PTPN2 [2]) [nM]
1 | Cn1c(=O)n(C2CCC(=O)NC2=O)c2ccc(N3[C@@H]4CC[C@H]3C[C@H](CC(=O)Nc3ccc5c(F)c(N6CC(=O)NS6(=O)=O)c(O)cc5c3)C4)cc21 (some centres unmarked) [Degrader 110] | 50 to 150 | 150 to 500
2 | Cn1c(=O)n(C2CCC(=O)NC2=O)c2cc(F)c(N3CCC(O)(CC(=O)Nc4ccc5c(F)c(N6CC(=O)NS6(=O)=O)c(O)cc5c4)CC3)cc21 (centres unmarked) [Degrader 74] | < 50 | 150 to 500
3 | Cn1nc(N2CCC(=O)NC2=O)c2cc(F)c(N3CCC(CC(=O)Nc4ccc5c(F)c(N6CC(=O)NS6(=O)=O)c(O)cc5c4)CC3)cc21 [Degrader 134] | 50 to 150 | 150 to 500
4 | CCn1nc(C2CCC(=O)NC2=O)c2ccc(C3CCN(CC(=O)Nc4ccc5c(F)c(N6CC(=O)NS6(=O)=O)c(O)cc5c4)CC3(F)F)cc21 (centres unmarked) [Degrader 11] | 50 to 150 | 150 to 500
